In publication PMC9090415, “Discovery of small molecule inhibitors of Plasmodium falciparum apicoplast DNA polymerase” (Journal of Enzyme Inhibition and Medicinal Chemistry, 2022):

Molecular target: P. falciparum apicoplast DNA polymerase (Pf-apPOL) (Plasmodium falciparum, UniProt Q8ILY1)
Test: Fluorescence-based high-throughput DNA polymerase assay (molecular beacon), primary screen and dose-response
Assay type: biochemical
Conditions: for DNA Pol: 90 min, 10 µM; for % inhibition Apo pol 5': DRC-2, 5'; for % inhibition Apol 40': DRC-2, 40'; for % inhibition ApPOL 90': DRC-2, 90'; for IC50: supplemental file 2, sheet IC50 nontoxic compounds, Pf-apPOL
Procedure: The HT assay employs a molecular beacon, a stem-loop DNA template with a Cy3 dye and the Black Hole Quencher on the 3′ and 5′ ends of the DNA, respectively. Pf-apPOL concentration is based on a calculated absorptivity of ε280 = 56750 M^−1 cm^−1. Reactions were carried out at 25 °C, using Corning 3575 […] (well-volume, 20 µL). Assays testing for compound inhibition composed of reaction buffer (pH 7.9 in 50 mM potassium acetate, 20 mM Tris-acetate and 10 mM magnesium acetate), Pf-apPOL (20 nM), DNA substrate (20 nM), dNTPs (6 µM), and compound (10 µM in DMSO). The DNA and nucleotide substrates (dNTPs) were at concentrations of 20 nM and 6 µM, respectively, in the assay. Pf-apPOL was incubated in the reaction buffer with dNTPs and the compound of interest (10 µM, in the assay) at 25 °C for 10 min. The DNA substrate was then added and the reaction was allowed to proceed for 90 min at 25 °C.
Each assay plate contained 16 negative controls (no Pf-apPOL, DMSO present) and 16 positive controls (Pf-apPOL present, no DMSO). The fluorescence of each well was determined using a BioTek Synergy Neo fluorescence plate reader using excitation and emission wavelengths of 555 and 570 nm, respectively.
In the above, Min is the average of fluorescence emission of the negative controls (substrate only), Max the average fluorescence emission from the positive controls (enzyme + substrate), and Test the emission from the assays in the presence of compounds (enzyme + compound + substrates). […] […] The IC50 of each compound was determined using Equation (2): (2) IC50= Vmax/(1+ (I/IC50)^n)
In the above, n measures cooperativity, with n > 1 indicating synergistic binding of more than a single molecule of the compound.
To identify apPOL inhibitors we utilised our previously developed high-throughput DNA polymerase assay. The HT assay is based on a molecular beacon DNA template that forms a stem-loop with a Cy3 dye and the Black Hole Quencher on the 3′ and 5′ ends of the DNA, respectively. DNA polymerase activity extends an annealed primer through the stem region, displacing the fluorophore from the quencher, thereby increasing its fluorescence (Figure 1(A)). The assay accurately recapitulates the kinetic behaviour of apPOL, as measured through more conventional low-throughput gel-based assays. The Z′ factor for the assay described here was 0.9 across all plates (data not shown).
Figure 1. High-throughput screening. (A) The fluorescent-based DNA polymerase assay used to screen the compound libraries. The DNA template strand is a hairpin loop with a primer annealed to the loop. The 3’ end of the primer is 11 bases away from the 6 bp duplex. Strand displacement activity of the DNA polymerase separates the Cy3 dye from the Black hole quencher leading to an increase in fluorescent signal. (B) The high-throughput assay workflow. The DNA polymerase is incubated with […] compound for 10 min prior to addition of the hairpin substrate. The reaction is quenched at 3 different time points and the fluorescent signal is measured and % inhibition is determined using the provided equation.

Chain of P. falciparum apicoplast DNA polymerase (Pf-apPOL) (Q8ILY1 entry or part of it): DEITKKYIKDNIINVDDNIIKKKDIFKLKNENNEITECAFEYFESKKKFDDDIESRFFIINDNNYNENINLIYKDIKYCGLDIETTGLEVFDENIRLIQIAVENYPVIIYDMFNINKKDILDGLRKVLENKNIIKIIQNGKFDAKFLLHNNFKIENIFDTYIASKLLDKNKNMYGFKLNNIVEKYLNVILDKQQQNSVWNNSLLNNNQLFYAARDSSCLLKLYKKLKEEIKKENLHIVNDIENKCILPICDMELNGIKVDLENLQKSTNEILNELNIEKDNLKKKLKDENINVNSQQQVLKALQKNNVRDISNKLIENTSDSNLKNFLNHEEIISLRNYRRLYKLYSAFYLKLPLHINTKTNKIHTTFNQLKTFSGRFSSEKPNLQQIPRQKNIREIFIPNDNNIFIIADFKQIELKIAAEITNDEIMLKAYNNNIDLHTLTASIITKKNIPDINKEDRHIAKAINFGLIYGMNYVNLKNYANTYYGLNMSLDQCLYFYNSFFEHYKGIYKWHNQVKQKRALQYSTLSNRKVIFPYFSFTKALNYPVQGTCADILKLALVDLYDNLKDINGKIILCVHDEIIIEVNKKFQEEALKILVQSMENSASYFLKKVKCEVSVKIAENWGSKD

COc1ccc2c(c1)CCc1c-2nc2ccc(Br)cc2c1C(=O)O [KU0059417]
DNA Pol ('DNA Pol', screening value, unit not given): 29 | % inhibition Apo pol 10' (DRC-1, concentration 2.5): 25.2919% | % inhibition Apo pol 10' (DRC-1, concentration 5): 33.9692% | % inhibition Apo pol 10' (DRC-1, concentration 10): 45.4557% | % inhibition Apo pol 10' (DRC-1, concentration 20): 55.4931% | % inhibition Apo pol 10' (DRC-1, concentration 40): 69.0477% | % inhibition Apo pol 10' (DRC-1, concentration 80): 75.6745% | % inhibition Apol 90' (DRC-1, concentration 2.5): 11.1508% | % inhibition Apol 90' (DRC-1, concentration 5): 18.7068% | % inhibition Apol 90' (DRC-1, concentration 10): 30.3823% | % inhibition Apol 90' (DRC-1, concentration 20): 41.2946% | % inhibition Apol 90' (DRC-1, concentration 40): 54.5207% | % inhibition Apol 90' (DRC-1, concentration 80): 62.4129% | % inhibition apPOL 180' (DRC-1, 180', concentration 2.5): 3.289% | % inhibition apPOL 180' (DRC-1, 180', concentration 5): 10.0066% | % inhibition apPOL 180' (DRC-1, 180', concentration 10): 20.2825% | % inhibition apPOL 180' (DRC-1, 180', concentration 20): 30.8503% | % inhibition apPOL 180' (DRC-1, 180', concentration 40): 43.5885% | % inhibition apPOL 180' (DRC-1, 180', concentration 80): 50.0867% | % inhibition Apo pol 5' (concentration 2.5): 21% | % inhibition Apo pol 5' (concentration 5): 27% | % inhibition Apo pol 5' (concentration 10): 34% | % inhibition Apo pol 5' (concentration 20): 40% | % inhibition Apo pol 5' (concentration 40): 53% | % inhibition Apo pol 5' (concentration 80): 60% | % inhibition Apol 40' (concentration 2.5): 17% | % inhibition Apol 40' (concentration 5): 24% | % inhibition Apol 40' (concentration 10): 33% | % inhibition Apol 40' (concentration 20): 39% | % inhibition Apol 40' (concentration 40): 54% | % inhibition Apol 40' (concentration 80): 68% | % inhibition ApPOL 90' (concentration 2.5): 15% | % inhibition ApPOL 90' (concentration 5): 22% | % inhibition ApPOL 90' (concentration 10): 31% | % inhibition ApPOL 90' (concentration 20): 37% | % inhibition ApPOL 90' (concentration 40): 52% | % inhibition ApPOL 90' (concentration 80): 69% | % inhibition apPOL 180' (DRC-2, 180', concentration 2.5): 7% | % inhibition apPOL 180' (DRC-2, 180', concentration 5): 13% | % inhibition apPOL 180' (DRC-2, 180', concentration 10): 20% | % inhibition apPOL 180' (DRC-2, 180', concentration 20): 25% | % inhibition apPOL 180' (DRC-2, 180', concentration 40): 42% | % inhibition apPOL 180' (DRC-2, 180', concentration 80): 64% | DNA Pol (primary screen hit value, DNA Pol (186 hits)): 29

CCCCc1ccc(NC(=O)CSc2nc(O)c(C#N)c(C3CCCCC3)n2)c(C)c1 [Molecule 8]
IC50: 8.77 µM

Oc1ccc(N=Nc2ccccc2)c(O)c1 [Molecule 80]
IC50: 37.5 µM
